ChEMBL document CHEMBL2057075, “Guanacastane-type diterpenoids with cytotoxic activity from Coprinus plicatilis” (Bioorg Med Chem Lett, 2012)
Activity calls are given as the source filed them. No cut-off for these calls is given here.

Key:
HepG2 [1] = assay: Growth inhibition of human HepG2 cells at 20 uM after 72 hrs by MTT assay; type: functional, cell-based
U2OS = assay: Cytotoxicity against human U2OS cells after 72 hrs by MTT assay; type: functional, cell-based
BGC-823 = assay: Cytotoxicity against human BGC823 cells after 72 hrs by MTT assay; type: functional, cell-based; details: BGC-823, 72 h
HepG2 [2] = assay: cells; details: Homo sapiens, HepG2, 72 h
Description: Cytotoxicity against human HepG2 cells after 72 hrs by MTT assay

HeLa = assay: cells; details: Homo sapiens, 72 h
Description: Cytotoxicity against human HeLa cells after 72 hrs by MTT assay

HCT-116 = assay: cells; details: Homo sapiens, HCT-116, 72 h
MDA-MB-231 = assay: cells; details: Homo sapiens, MDA-MB-231, 72 h
Description: Cytotoxicity against human MDA-MB-231 cells after 72 hrs by MTT assay

Row | IC50 (HepG2 [2]) | IC50 (HeLa) | IC50 (HCT-116) | IC50 (MDA-MB-231) | Compound | growth inhibition (GI) (HepG2 [1]) | IC50 (U2OS) | IC50 (BGC-823)
1 | 2.3 µM | 5 µM | 1.2 µM | 6 µM | CC(C)[C@H]1[C@@H](O)[C@@H](O)C2=C3OC(=O)C4=C3[C@@](C)(CC[C@@H]4O)CC[C@@]21C (relative stereo) | Active | 19.3 µM | 2400 nM
2 | 16.9 µM | > 50 µM | 19.8 µM | 34.8 µM | CC(C)[C@H]1[C@@H](O)C(=O)[C@@]2(O)[C@H]3OCC4=C3[C@@](C)(CC[C@@H]4O)CC[C@]12C (relative stereo) | Active | 39.7 µM | 35600 nM

More lines, now with the values behind:

Row | Compound | IC50 (HepG2 [2]) | IC50 (HeLa) | IC50 (HCT-116) | IC50 (MDA-MB-231) | growth inhibition (GI) (HepG2 [1]) | IC50 (U2OS) | IC50 (BGC-823)
3 | CC(=O)O[C@H]1C(=O)[C@@H]2[C@H]3OCC4=C3[C@@](C)(CC[C@@H]4O)CC[C@]2(C)[C@H]1C(C)C | – | – | – | – | inactive | – | –
4 | CC(C)[C@H]1C(=O)CC2=C(O)C3=C(CO)[C@@H](O)CC[C@@]3(C)CC[C@@]21C (relative stereo) | 25.9 µM | > 50 µM | 38.9 µM | > 50 µM | Active | > 50 µM | > 50000 nM
5 | CC(C)[C@H]1[C@@H](O)[C@H](O)C2=CC3=C(CO)CCC[C@@]3(C)CC[C@@]21C (relative stereo) | – | – | – | – | inactive | – | –
6 | COc1cccc2c1C(=O)c1c(O)c3c(c(O)c1C2=O)C[C@@](O)(C(=O)CO)C[C@@H]3O[C@H]1C[C@H](N)[C@H](O)[C@H](C)O1 [DOXORUBICIN] | 0.7 µM | 0.6 µM | 0.3 µM | – | – | 3.4 µM | 900 nM
